Earlier results in patent publication US9415078B2 (priority 2011, dated 2016).
Values joined by “and” are separate entries in the source; they are usually repeats but may differ in a detail not shown here. Equal entries are not always repeated. Where two headings read alike, the source gives them in different places.

Test system: non squamous and squamous carcinoma of lung
Conditions: pemetrexed-based therapy, two comparisons

## Nc1nc2[nH]cc(CCc3ccc(C(=O)N[C@@H](CCC(=O)O)C(=O)O)cc3)c2c(=O)[nH]1 [pemetrexed]
Non squamous patients
  HR for survival versus the comparators: 0.78 and 0.84
Squamous patients
  HR for survival versus the comparators: 1.56 and 1.23
